The target of series [1] is T1, wild-type CYP2C9 (Homo sapiens, UniProt P11712).
Series [2] addresses T2, CYP2C9 F100L mutant (Homo sapiens, UniProt P11712, F100L). The following applies: F100L.
For another series, the target named is CYP2C9 F476W mutant (Homo sapiens, UniProt P11712, F476W).
For the next series, the target named is CYP2C9 F114W mutant (Homo sapiens, UniProt P11712, F114W). Description: in vitro. The following applies: pH 7.4.
Series [3] addresses T2, CYP2C9 F100L mutant. Description: biochemical.
In the next series the target is CYP2C9 F114L mutant (Homo sapiens, UniProt P11712, F114L). Kind of series: biochemical.
Series [4] addresses CYP2C9 F114W/F476W double mutant (Homo sapiens, UniProt P11712, F114W/F476W). Description: biochemical.
For series [5], the target named is T1, wild-type CYP2C9. This is another data set of the same source.

What is called Km is the substrate concentration at which the rate is half of its maximum. For orientation: Kd means the constant that tells how readily two partners part at equilibrium. A higher Kd goes with weaker binding. One may read the kcat as the maximal rate divided by the concentration of active sites. Turning to `C[C@H](C(=O)O)c1ccc(-c2ccccc2)c(F)c1` [(S)-flurbiprofen], the fraction high spin at wild-type CYP2C9 [1] (WT + ligand, used for the NMR distance calculation) is listed as 0.16; on CYP2C9 F476W mutant (F476W + ligand, used for the NMR distance calculation), 0.06. In addition, the “percent of wild-type ΔA/K” value on wild-type CYP2C9 [1] (Wild-type) is 100%; at CYP2C9 F100L mutant [2], 137%; at CYP2C9 F476W mutant (F476W), 5%. Besides, the ΔA/K on wild-type CYP2C9 [1] (Wild-type) is on record as 5.3 μM^−1 × 10^−3; at CYP2C9 F100L mutant [2] it was 7.3 μM^−1 × 10^−3; at CYP2C9 F476W mutant (F476W) it was 0.3 μM^−1 × 10^−3. Moreover, the “ΔAmax (maximum observed difference 390–420 nm)” value on wild-type CYP2C9 [1] (Wild-type) is listed as 18 ± 0.5 ×10^−3; on CYP2C9 F100L mutant [2], 16 ± 0.3 ×10^−3. In addition, the Km at 20 min was 19.5 ± 3.2 µM at CYP2C9 F114W mutant and 22.9 ± 3.7 µM on wild-type CYP2C9 [5] (human, pH 7.4). For the same molecule, the dissociation constant Kd is 2.2 ± 0.2 µM at CYP2C9 F100L mutant [3], 4.1 ± 0.6 µM at CYP2C9 F114L mutant and 22.3 ± 4.1 µM in series [4]. Also, the “percent of wild-type kcat/Km” value at wild-type CYP2C9 [5] (WT) turned out to be 100%. Moreover, at wild-type CYP2C9 [5] (WT, substrate hydroxylation), the kcat came to 0.15 ± 0.0067 s⁻¹.
